Experiments:
Experiment in all cases: kinase binding constant, 11-point dose response (T7 phage, qPCR)
Settings in all cases: >30 = no inhibition at highest concentration tested
[1] = target: CDK7 (Homo sapiens, UniProt P50613)
[2] = target: T1, YSK4 (Homo sapiens, UniProt Q56UN5)
T1 sequence (Q56UN5 1-1328): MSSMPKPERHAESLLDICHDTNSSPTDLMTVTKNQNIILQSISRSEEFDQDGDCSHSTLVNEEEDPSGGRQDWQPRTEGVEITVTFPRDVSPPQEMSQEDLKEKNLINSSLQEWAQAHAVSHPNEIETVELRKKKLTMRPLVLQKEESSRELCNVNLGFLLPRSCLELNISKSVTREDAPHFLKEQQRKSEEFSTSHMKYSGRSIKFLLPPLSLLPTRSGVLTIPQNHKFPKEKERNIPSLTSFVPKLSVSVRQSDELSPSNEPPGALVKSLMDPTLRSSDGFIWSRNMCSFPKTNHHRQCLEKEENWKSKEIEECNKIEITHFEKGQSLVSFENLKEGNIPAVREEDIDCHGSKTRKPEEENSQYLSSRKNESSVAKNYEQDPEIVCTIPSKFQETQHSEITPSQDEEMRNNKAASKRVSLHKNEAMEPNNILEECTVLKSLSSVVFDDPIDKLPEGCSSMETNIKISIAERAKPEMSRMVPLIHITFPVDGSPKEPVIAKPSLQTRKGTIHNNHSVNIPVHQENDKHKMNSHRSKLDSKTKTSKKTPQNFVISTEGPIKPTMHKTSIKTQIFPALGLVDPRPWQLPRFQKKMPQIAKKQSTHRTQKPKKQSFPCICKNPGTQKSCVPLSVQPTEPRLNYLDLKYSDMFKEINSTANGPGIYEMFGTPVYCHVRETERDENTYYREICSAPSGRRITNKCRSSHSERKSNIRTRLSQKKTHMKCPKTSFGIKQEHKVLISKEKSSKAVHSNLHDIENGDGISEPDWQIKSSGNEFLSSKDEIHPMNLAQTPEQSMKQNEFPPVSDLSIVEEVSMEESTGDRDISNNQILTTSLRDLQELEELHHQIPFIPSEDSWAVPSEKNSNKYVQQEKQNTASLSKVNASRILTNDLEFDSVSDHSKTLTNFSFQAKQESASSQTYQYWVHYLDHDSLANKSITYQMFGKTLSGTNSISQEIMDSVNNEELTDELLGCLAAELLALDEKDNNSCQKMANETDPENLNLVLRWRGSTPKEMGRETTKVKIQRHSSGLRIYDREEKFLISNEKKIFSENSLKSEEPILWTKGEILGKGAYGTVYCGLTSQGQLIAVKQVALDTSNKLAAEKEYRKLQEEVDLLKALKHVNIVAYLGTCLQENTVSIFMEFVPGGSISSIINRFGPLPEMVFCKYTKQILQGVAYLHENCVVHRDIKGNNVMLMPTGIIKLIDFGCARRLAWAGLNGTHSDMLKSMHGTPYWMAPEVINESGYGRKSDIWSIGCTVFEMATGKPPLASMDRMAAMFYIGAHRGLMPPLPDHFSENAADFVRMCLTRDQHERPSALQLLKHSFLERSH

[3] = target: T2, IRAK3 (Homo sapiens, UniProt Q9Y616)
T2 sequence (Q9Y616 1-596): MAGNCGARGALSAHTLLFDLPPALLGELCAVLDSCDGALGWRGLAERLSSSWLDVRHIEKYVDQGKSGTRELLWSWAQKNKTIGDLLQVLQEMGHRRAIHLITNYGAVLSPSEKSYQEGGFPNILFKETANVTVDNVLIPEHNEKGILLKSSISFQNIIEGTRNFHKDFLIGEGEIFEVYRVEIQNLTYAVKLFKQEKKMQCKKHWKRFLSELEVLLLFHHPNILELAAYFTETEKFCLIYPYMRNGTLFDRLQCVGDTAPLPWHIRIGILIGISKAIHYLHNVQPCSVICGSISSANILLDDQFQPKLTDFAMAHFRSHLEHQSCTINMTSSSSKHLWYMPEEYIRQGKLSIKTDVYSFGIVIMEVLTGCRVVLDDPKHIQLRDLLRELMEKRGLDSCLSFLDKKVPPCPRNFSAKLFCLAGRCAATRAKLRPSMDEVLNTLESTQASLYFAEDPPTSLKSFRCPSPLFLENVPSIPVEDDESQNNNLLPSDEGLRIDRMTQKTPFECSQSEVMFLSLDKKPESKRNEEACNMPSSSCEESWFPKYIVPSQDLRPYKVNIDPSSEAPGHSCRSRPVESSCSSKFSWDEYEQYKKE

[4] = target: YANK2 (Homo sapiens, UniProt Q9NY57)
YANK2, sequence (Q9NY57 whole entry): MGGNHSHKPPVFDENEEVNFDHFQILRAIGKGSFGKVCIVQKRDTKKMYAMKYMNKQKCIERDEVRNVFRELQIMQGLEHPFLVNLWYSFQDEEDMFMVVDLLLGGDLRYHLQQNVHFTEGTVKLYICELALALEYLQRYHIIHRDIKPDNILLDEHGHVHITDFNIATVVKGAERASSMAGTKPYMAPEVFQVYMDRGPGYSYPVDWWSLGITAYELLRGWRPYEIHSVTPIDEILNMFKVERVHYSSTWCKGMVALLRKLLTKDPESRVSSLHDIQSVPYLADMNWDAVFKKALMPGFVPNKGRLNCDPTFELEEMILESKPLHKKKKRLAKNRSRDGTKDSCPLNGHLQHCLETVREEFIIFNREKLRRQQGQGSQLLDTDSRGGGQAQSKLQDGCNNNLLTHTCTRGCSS

CDK7, sequence (P50613 whole entry): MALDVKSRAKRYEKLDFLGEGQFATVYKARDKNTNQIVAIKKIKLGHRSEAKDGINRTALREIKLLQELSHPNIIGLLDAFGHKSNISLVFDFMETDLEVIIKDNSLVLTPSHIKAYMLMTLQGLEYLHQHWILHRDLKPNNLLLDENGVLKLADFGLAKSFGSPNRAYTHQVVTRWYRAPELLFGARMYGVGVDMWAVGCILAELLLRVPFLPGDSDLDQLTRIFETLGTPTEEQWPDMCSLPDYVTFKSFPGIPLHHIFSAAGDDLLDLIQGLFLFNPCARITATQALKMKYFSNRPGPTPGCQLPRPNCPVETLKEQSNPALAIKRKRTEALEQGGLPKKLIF

SMILES: Nc1nc2c(-c3ccccn3)nccc2[nH]1 [drawing 35, 4-(pyrid-2-yl)-1H-imidazo[4,5-c]pyridin-2-amine]
- Kd [1]: 7.5 µM
- Kd [2]: 0.22 µM

SMILES: Nc1nc2c(-c3cnc4ccccc4c3)nccc2[nH]1 [drawing 36, 4-(quinolin-3-yl)-1H-imidazo[4,5-c]pyridin-2-amine]
- Kd [3]: 8.9 µM
- Kd [4]: > 30 µM

Reference: patent publication US20110152313A1 (MACQUARIE UNIVERSITY, priority 2008, published 2011)
